Source: ChEMBL document CHEMBL5614401 (Eur J Med Chem, 2024)
One block for each compound: values may come before it. Calls of active or inactive are those of the source. The calls are words filed in the database; no cut-off is given here.

Assays:
[1] = target: T1, Solute carrier family 22 member 12 (Homo sapiens, UniProt Q96S37); assay: Inhibition of human URAT1 transfected in HEK293 cells by measuring 14C-uric acid uptake at 5 uM preincubated for 30 mins followed by 14--uric acid addition and measured after 15 mins by liquid scintillation counter analysis relative to control; assay type: cell-based; details: 0.25 h, time 45 min
T1 sequence (Q96S37 whole entry): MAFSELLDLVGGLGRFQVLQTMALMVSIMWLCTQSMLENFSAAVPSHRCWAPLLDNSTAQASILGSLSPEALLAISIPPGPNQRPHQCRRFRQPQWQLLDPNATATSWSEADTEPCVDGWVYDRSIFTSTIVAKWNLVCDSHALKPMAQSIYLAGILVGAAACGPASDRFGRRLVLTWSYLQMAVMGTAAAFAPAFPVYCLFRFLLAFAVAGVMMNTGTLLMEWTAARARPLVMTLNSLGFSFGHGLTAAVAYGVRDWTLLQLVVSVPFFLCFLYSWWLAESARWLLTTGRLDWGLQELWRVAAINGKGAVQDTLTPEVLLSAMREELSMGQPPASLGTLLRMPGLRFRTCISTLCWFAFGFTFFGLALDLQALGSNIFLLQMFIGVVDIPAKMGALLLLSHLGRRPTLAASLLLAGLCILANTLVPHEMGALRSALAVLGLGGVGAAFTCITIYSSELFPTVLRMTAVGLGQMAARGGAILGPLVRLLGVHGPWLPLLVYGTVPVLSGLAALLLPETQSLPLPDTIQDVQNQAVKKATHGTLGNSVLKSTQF

[2] = target: T1, Solute carrier family 22 member 12; assay: Inhibition of human URAT1 transfected in HEK293 cells by measuring 14C-uric acid uptake preincubated for 30 mins followed by 14--uric acid addition and measured after 15 mins by liquid scintillation counter analysis; assay type: cell-based
[3] = target: T2, Solute carrier family 2, facilitated glucose transporter member 9 (Homo sapiens) (UniProt Q9NRM0); assay: Inhibition of GLUT9 (unknown origin) overexpressed in uric acid-induced HEK293 cells at 25 uM by patch clamp analysis relative to control; assay type: cell-based
T2 sequence (whole entry): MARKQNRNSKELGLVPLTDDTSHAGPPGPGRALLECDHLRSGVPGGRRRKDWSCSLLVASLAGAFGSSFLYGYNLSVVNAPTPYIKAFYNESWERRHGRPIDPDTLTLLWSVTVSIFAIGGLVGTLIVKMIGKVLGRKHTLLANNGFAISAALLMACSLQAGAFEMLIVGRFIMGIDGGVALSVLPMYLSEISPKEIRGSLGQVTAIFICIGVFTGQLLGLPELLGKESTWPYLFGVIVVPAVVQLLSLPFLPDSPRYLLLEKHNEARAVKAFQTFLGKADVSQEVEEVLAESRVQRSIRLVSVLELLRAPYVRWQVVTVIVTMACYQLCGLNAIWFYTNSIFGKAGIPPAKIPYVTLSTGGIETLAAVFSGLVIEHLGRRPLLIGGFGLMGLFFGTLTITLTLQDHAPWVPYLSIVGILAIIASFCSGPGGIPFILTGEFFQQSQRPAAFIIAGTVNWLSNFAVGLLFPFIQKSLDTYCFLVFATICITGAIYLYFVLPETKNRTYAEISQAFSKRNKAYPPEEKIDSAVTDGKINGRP

Mus musculus [4] = assay: (§1) Anti-hyperuricemic activity against potassium oxonate-induced male Kunming mouse model assessed as reduction in serum uric acid level at 10 mg/kg, po via gavage administered 1 hr post-potassium oxonate challenge and measured after 7 days on day 7 potassium oxonate injected after 12 hrs fasting and measured followed by 1.5 hrs of compound administration; assay type: functional; details: time 7 day
Mus musculus [5] = assay: as §1, with “increase” for “reduction”, “urine” for “serum”, “administration (reference value: 481.6 microM)” for “administration”; assay type: functional; details: time 7 day
HK-2 [6] = assay: Cytotoxicity against human HK-2 cells assessed as cell viability at <100 uM incubated for 24 hrs by MTT assay; assay type: toxicity, cell-based; details: hk-2, 24 h
HK-2 [7] = assay: Cytotoxicity against human HK-2 cells assessed as cell viability at 100 uM incubated for 48 hrs by MTT assay; assay type: toxicity, cell-based; details: hk-2, 48 h
[8] = (§2) Renal toxicity in potassium oxonate-induced male Kunming mouse model assessed as reduction in CR level in serum at 10 mg/kg,po via gavage administered 1 hr post-potassium oxonate challenge and measured after 7 days on day 7 potassium oxonate injected after 12 hrs fasting and measured followed by 1.5 hrs of compound administration by biochemical analyzer; assay type: organism-based; details: in vivo, 168 h, time 7 day
[9] = as §2, with “BUN” for “CR”; assay type: organism-based; details: in vivo, 168 h, time 7 day
[10] = as §2, with “effect on kidney damage” for “reduction in CR level in serum”, “administration” for “administration by biochemical analyzer”; assay type: organism-based; details: in vivo, 168 h, time 7 day
Mus musculus [11] = assay: as §1, with “alleviation of renal tubule dilatation” for “reduction in serum uric acid level”, “administration by H and E staining based analysis” for “administration”; assay type: functional, organism-based; details: time 7.0 day
Mus musculus [12] = assay: as §1, with “alleviation of casts formation” for “reduction”, “kidney” for “serum uric acid level”, “administration by H and E staining based analysis” for “administration”; assay type: functional, organism-based; details: time 7.0 day
Mus musculus [13] = assay: as §1, with “alleviation of glomerular ischemia” for “reduction”, “kidney” for “serum uric acid level”, “administration by H and E staining based analysis” for “administration”; assay type: functional, organism-based; details: time 7.0 day
Mus musculus [14] = assay: as §1, with “alleviation of shrinkage” for “reduction”, “kidney” for “serum uric acid level”, “administration by H and E staining based analysis” for “administration”; assay type: functional, organism-based; details: time 7.0 day
[15] = Tmax in male Sprague-Dawley rat at 10 mg/kg, po measured after 24 hrs by LC-MS/MS analysis; assay type: ADME, organism-based; details: in vivo
[16] = Cmax in male Sprague-Dawley rat at 10 mg/kg, po measured after 24 hrs by LC-MS/MS analysis; assay type: ADME, organism-based; details: in vivo
[17] = Half life in male Sprague-Dawley rat at 10 mg/kg, po measured after 24 hrs by LC-MS/MS analysis; assay type: ADME, organism-based; details: in vivo
[18] = AUC (0 to infinity) in male Sprague-Dawley rat at 10 mg/kg, po measured after 24 hrs by LC-MS/MS analysis; assay type: ADME, organism-based; details: in vivo
[19] = MRT (0 to infinity) in male Sprague-Dawley rat at 10 mg/kg, po measured after 24 hrs by LC-MS/MS analysis; assay type: ADME, organism-based; details: in vivo
[20] = target: T3, Solute carrier family 2, facilitated glucose transporter member 9 (Homo sapiens, UniProt Q9NRM0); assay: Inhibition of GLUT9 (unknown origin) overexpressed in uric acid-induced HEK293 cells by patch clamp analysis; assay type: cell-based
T3 sequence (Q9NRM0 whole entry): T2 sequence (whole entry)

[21] = Cytotoxicity against human HK-2 cells assessed as cell viability at 100 uM incubated for 48 hrs by MTT assay relative to control; assay type: toxicity, cell-based; details: read-out: Activity

inhibition at 5 µM [1]: 19.8%
SMILES: CC(C)=CCc1c(O)ccc2c1OC(c1cccs1)CC2=O (stereo not drawn)

IC50 [2]: 650 nM
SMILES: O=C(O)C/C=C/Cc1c(O)ccc2c1OC(c1csc3ccccc13)CC2=O (stereo not drawn)

IC50 [2]: 3020 nM
SMILES: O=C(O)/C=C/Cc1c(O)ccc2c1OC(c1ccc(O)cc1)CC2=O (stereo not drawn)

inhibition at 5 µM [1]: 4.4%
SMILES: CC(C)=CCc1c(O)ccc2c1OC(c1ccc(F)cc1)CC2=O (stereo not drawn)

IC50 [2]: 4240 nM
SMILES: O=C(O)/C=C/Cc1cccc2c1OC(c1ccc(O)cc1)CC2=O (stereo not drawn)

IC50 [2]: 980 nM
SMILES: C/C(=C\Cc1cccc2c1OC(c1cc(Br)cs1)CC2=O)C(=O)O (stereo not drawn)

IC50 [2]: 2500 nM
SMILES: O=C(O)/C=C/Cc1cccc2c1OC(c1cccs1)CC2=O (stereo not drawn)

IC50 [2]: 1640 nM
SMILES: C/C(=C\Cc1cccc2c1OC(c1cc3ccccc3s1)CC2=O)C(=O)O (stereo not drawn)

IC50 [2]: 1890 nM
SMILES: O=C(O)/C=C/Cc1cccc2c1OC(c1cc3ccccc3s1)CC2=O (stereo not drawn)

IC50 [2]: 360 nM | inhibition [3]: 25.5% | Tmax [15]: 1.63 h | Cmax [16]: 1410 ng/mL | half-life [17]: 271 min | AUC(0-inf) [18]: 5560 ng·h/mL | MRT inf [19]: 8.48 h
SMILES: C/C(=C\Cc1c(O)ccc2c1OC(c1cccs1)CC2=O)C(=O)O (stereo not drawn)
Activity (Mus musculus [4]): 366.12 µM | Activity (Mus musculus [5]): 630.52 µM | Activity (HK-2 [6]): Toxic | Activity (HK-2 [7]): Non-Toxic | Activity [8]: Non-Toxic | Activity [9]: Non-Toxic | Activity [10]: Non-Toxic | Activity (Mus musculus [11]): Active | Activity (Mus musculus [12]): Active | Activity (Mus musculus [13]): Active | Activity (Mus musculus [14]): Active

IC50 [2]: 2180 nM
SMILES: C/C(=C\Cc1cccc2c1OC(c1ccsc1)CC2=O)C(=O)O (stereo not drawn)

inhibition at 5 µM [1]: 32.2%
SMILES: CC(C)=CCc1c(O)ccc2c1OC(c1ccc(Br)cc1)CC2=O (stereo not drawn)

IC50 [2]: 2680 nM
SMILES: C/C(=C\Cc1cccc2c1OC(c1ccc(O)cc1)CC2=O)C(=O)O (stereo not drawn)

IC50 [2]: 2110 nM
SMILES: C/C(=C\Cc1c(O)ccc2c1OC(c1ccc(O)cc1)CC2=O)C(=O)O (stereo not drawn)

IC50 [2]: 830 nM
SMILES: C/C(=C\Cc1c(O)ccc2c1OC(c1ccc(Br)cc1)CC2=O)C(=O)O (stereo not drawn)

IC50 [2]: 2180 nM
SMILES: O=C(O)/C=C/Cc1c(O)ccc2c1OC(c1cccs1)CC2=O (stereo not drawn)

IC50 [2]: 160 nM | inhibition [3]: 91% | IC50 [20]: 4.47 µM | Tmax [15]: 1.15 h | Cmax [16]: 2250 ng/mL | half-life [17]: 473 min | AUC(0-inf) [18]: 18700 ng·h/mL | MRT inf [19]: 10.2 h
SMILES: C/C(=C\Cc1cccc2c1OC(c1ccc(Br)c3ccccc13)CC2=O)C(=O)O (stereo not drawn)
Activity (Mus musculus [4]): 319.1 µM | Activity (Mus musculus [5]): 642.1 µM | Activity (HK-2 [6]): Toxic | viability at 48 h, 100 µM [21]: 62.1% | Activity [8]: Non-Toxic | Activity [9]: Non-Toxic | Activity [10]: Non-Toxic | Activity (Mus musculus [11]): Active | Activity (Mus musculus [12]): Active | Activity (Mus musculus [13]): Active | Activity (Mus musculus [14]): Active

inhibition at 5 µM [1]: 13.4%
SMILES: CC(C)=CCc1c(O)ccc2c1OC(c1cc3ccccc3s1)CC2=O (stereo not drawn)
